For three molecules, IC50 and Km results are on record in publication PMC7600710, “The Inhibition of Serine/Threonine Protein Phosphatase Type 5 Mediates Cantharidin Toxicity to Control Periplaneta americana (L.)” (Insects, 2020).

In data set [1] the target is T1, serine/threonine protein phosphatase type 5 (PaPP5), catalytic domain PaPP5c (Periplaneta americana, UniProt A0A3Q9NNI4).
T1 construct: gene PP5; catalytic domain of PP5 (167-489 amino acids, PP5c), His-tagged, expressed in E. coli; full-length GenBank AZT88974.1
T1 sequence (A0A3Q9NNI4 167-489): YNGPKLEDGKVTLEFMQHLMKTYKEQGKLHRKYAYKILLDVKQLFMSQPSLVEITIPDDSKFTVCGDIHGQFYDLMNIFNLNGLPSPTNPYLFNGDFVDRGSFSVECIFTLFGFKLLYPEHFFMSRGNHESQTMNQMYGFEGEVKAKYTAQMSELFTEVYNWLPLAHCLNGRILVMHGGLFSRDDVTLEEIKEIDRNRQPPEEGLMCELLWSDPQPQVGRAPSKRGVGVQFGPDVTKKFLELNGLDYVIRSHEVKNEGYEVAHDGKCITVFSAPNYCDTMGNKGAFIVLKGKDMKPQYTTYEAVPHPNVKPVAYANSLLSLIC
The experiment in a line: DiFMUP fluorescence phosphatase inhibition assay on purified recombinant PaPP5c. The class given is biochemical.

Substrate in the data set “purified protein”: Cc1cc(=O)oc2c(F)c(OP(=O)(O)O)c(F)cc12
As to the kind of experiment: purified protein. The conditions noted are these: Mn2+ (MnCl2 in expression, dialysis and assay buffer).

As to `C[C@@]12C(=O)OC(=O)[C@]1(C)[C@H]1CC[C@@H]2O1` [Cantharidin], in data set [1], the half-maximal inhibitory concentration (IC50) came to 390 ± 40 nM. Same read-out and setting: then `O=C1OC(=O)[C@H]2[C@@H]1[C@@H]1CC[C@H]2O1` [Norcantharidin], with 1870 ± 230 nM.

B1: serine/threonine protein phosphatase type 5 (PaPP5), catalytic domain PaPP5c (Periplaneta americana) (protein)
chain: T1 sequence (A0A3Q9NNI4 167-489)
On to B1, for which, in “purified protein”, the Michaelis-Menten constant (Km) turned out to be 144.10 ± 9.730 µM.

For orientation: IC50 means the concentration that gives 50% inhibition. The term Km denotes the substrate concentration at which the rate is half of its maximum.
